Tested on: HIV (HTLV-III B strain)
Assay: HIV replication inhibition assay (MTT, MT-4 cells)
Format: cell-based
Details: 4 days culture, concentration at which cell cytotoxicity by virus is inhibited 50%
Protocol: HIV (HTLV-III B strain) persistent infected human T cell strain Molt-4 clone 8 was cultured in 10% Fetal Bovine Serum-containing RPMI-1640 medium and the supernatant was filtrated, then the virus titer was measured and the solution was stored at −80° C. Each anti-human immunodeficiency virus active substance was diluted with the above cultured medium to the designated concentration, which was dispensed into 96 well micro plate by 50 μL. Next, a MT-4 cell suspended liquid was dispensed by 100 μL (2.5×10^4 cells), then the above HIV-containing supernatant diluted with the above cultured medium was added thereto by 50 μL (60 pfu (plaque forming unit)).
The obtained mixture was cultured at 37° C. in CO2 incubator for four days, then 3-(4,5-dimehylthiazole-2-yl)-2,5-diphenyltetrazolynium bromide (MTT) 5 mg/mL in PBS was added to each well by 30 μL, followed by 1 hr-cultivation. In this step, as formazan was precipitated by reduction of MTT in living cells, the cell supernatant was removed from all well by 150 μL, then a 150 μL of solution (10% Triton X-100 and […]) was added thereto, followed by shaking with a plate mixer, to elute formazan. The formazan was measured with a microreader at OD: 560 nm and 690 nm (wavelength) and the result was compared with the reference. EC50 means the compound concentration at which cell cytotoxicity by virus is inhibited 50%.

| Compound | EC50 [nM] |
| --- | --- |
| Cc1c(-c2c([C@H](OC(C)(C)C)C(=O)O)c(C)c3nc(O)c4ccccc4c3c2C)ccc2c1CCCO2 [Compound 8] | 62 |

Same assay, conditions: Human immunodeficiency virus 1, MT4, 96 h, 4 days culture, concentration at which cell cytotoxicity by virus is inhibited 50%

| Compound | EC50 [nM] |
| --- | --- |
| Cc1c(-c2ccc3cccnc3c2C)c([C@H](OC(C)(C)C)C(=O)O)c(C)c2c1-c1c(F)ccc(F)c1CN2S(C)(=O)=O [Compound 311] | 28 |
| Cc1ccc(-c2c(C)c3c(c(C)c2[C@H](OC(C)(C)C)C(=O)O)N(S(C)(=O)=O)Cc2cc(C)cnc2-3)cc1 [Compound 315] | < 7.8 |
| Cc1ccc(-c2c(C)c3c(c(C)c2[C@H](OC(C)(C)C)C(=O)O)N(S(C)(=O)=O)Cc2c(C(F)(F)F)ccnc2-3)cc1 [Compound 319] | 8.4 |
| COc1nc2c(s1)CN(S(C)(=O)=O)c1c(C)c([C@H](OC(C)(C)C)C(=O)O)c(-c3ccc(C)cc3)c(C)c1-2 [Compound 307] | 51 |
| Cc1ccc(-c2c(C)c3c(c(C)c2[C@H](OC(C)(C)C)C(=O)O)NC(=O)N(C2CCCCC2)CC3)cc1 [Compound 71] | 16 |

Same assay, conditions: Human immunodeficiency virus 1, MT4, 96 h, Table A-2, four days

| Compound | EC50 [nM] |
| --- | --- |
| Cc1ccc(-c2c([C@H](OC(C)(C)C)C(=O)O)c(C)c3nc(O)c4cc(C)ccc4c3c2C)cc1 [Compound 96] | 32 |
| Cc1ccc(-c2c([C@H](OC(C)(C)C)C(=O)O)c(C)c3nc(O)c4cc5ccsc5nc4c3c2C)cc1 [Compound 101] | 17 |
| Cc1ccc(-c2c(C)c3c(c(C)c2[C@H](OC(C)(C)C)C(=O)O)N(S(C)(=O)=O)Cc2c-3ccc3cccnc23)cc1 [Compound 116] | 2.9 |
| COc1ccc2c(c1)CN(S(C)(=O)=O)c1c(C)c([C@H](OC(C)(C)C)C(=O)O)c(-c3ccc(C)cc3)c(C)c1-2 [Compound 122] | 3.8 |
| Cc1ccc(-c2c(C)c3c(c(C)c2[C@H](OC(C)(C)C)C(=O)O)NS(=O)(=O)/C=C/CCCCO3)cc1 [Compound 88] | 21 |
| Cc1ccc(-c2c(C)c3c(c(C)c2[C@H](OC(C)(C)C)C(=O)O)NS(=O)(=O)N(C2CCCCC2)CC3)cc1 [Compound 127] | 11 |
| Cc1ccc(-c2c(C)c3c(c(C)c2[C@H](OC(C)(C)C)C(=O)O)NS(=O)(=O)N(CC2CCCCC2)CC3)cc1 [Compound 130] | 12 |

Same assay, conditions: Human immunodeficiency virus 1, MT4, 96 h, Table A-3, four days

| Compound | EC50 [nM] |
| --- | --- |
| Cc1ccc(-c2c(C)c3c(c(C)c2[C@H](OC(C)(C)C)C(=O)O)NC(=O)N(Cc2ccc(F)cc2)CC3)cc1 [Compound 177] | 34 |
| Cc1ccc(-c2c(C)c3c(c(C)c2[C@H](OC(C)(C)C)C(=O)O)N(S(C)(=O)=O)Cc2cc4c(cc2-3)COC4)cc1 [Compound 166] | 1.7 |
| Cc1ccc(-c2c(C)c3c(c(C)c2[C@H](OC(C)(C)C)C(=O)O)N(S(=O)(=O)C2CC2)Cc2ccccc2-3)cc1 [Compound 155] | 39 |
| Cc1ccc(-c2c(C)c3c(c(C)c2[C@H](OC(C)(C)C)C(=O)O)N(S(C)(=O)=O)Cc2c-3ccc(C)c2F)cc1 [Compound 141] | 3.5 |
| Cc1ccc(-c2c(C)c3c(c(C)c2[C@H](OC(C)(C)C)C(=O)O)N(S(C)(=O)=O)Cc2cc(F)ccc2-3)cc1 [Compound 167] | 8.5 |
| Cc1ccc(-c2c(C)c3c(c(C)c2[C@H](OC(C)(C)C)C(=O)O)N(S(C)(=O)=O)Cc2c(F)ccc(C)c2-3)cc1 [Compound 172] | 42 |
| Cc1ccc(-c2c(C)c3c(c(C)c2[C@H](OC(C)(C)C)C(=O)O)NC(=O)C2(CCC(F)(F)CC2)N3)cc1 [Compound 157] | 4.3 |
| Cc1ccc(-c2c(C)c3c(c(C)c2[C@H](OC(C)(C)C)C(=O)O)N(S(C)(=O)=O)Cc2c(F)cccc2-3)cc1 [Compound 163] | 15 |
| Cc1ccc(-c2c(C)c3c(c(C)c2[C@H](OC(C)(C)C)C(=O)O)NC(=O)N(C2CCCCCC2)CC3)cc1 [Compound 148] | 8.8 |

Same assay, conditions: Human immunodeficiency virus 1, MT4, 96 h, Table A-4, four days

| Compound | EC50 [nM] |
| --- | --- |
| Cc1ccc(-c2c(C)c3c(c(C)c2[C@H](OC(C)(C)C)C(=O)O)N(S(C)(=O)=O)Cc2ccc(F)c(F)c2-3)cc1 [Compound 220] | 7.3 |
| Cc1ccc(-c2c(C)c3c(c(C)c2[C@H](OC(C)(C)C)C(=O)O)N(S(C)(=O)=O)Cc2cc(F)cc(F)c2-3)cc1 [Compound 212] | 1.9 |
| Cc1ccc(-c2c([C@H](OC(C)(C)C)C(=O)O)c(C)c3nc(O)c4cc5ccccc5nc4c3c2C)cc1 [Compound 233] | 38 |
| Cc1c(-c2c([C@H](OC(C)(C)C)C(=O)O)c(C)c3nc(O)c4cc(F)cnc4c3c2C)ccc2c1CCCO2 [Compound 218] | 6.4 |
| Cc1ccc(-c2c([C@H](OC(C)(C)C)C(=O)O)c(C)c3nc(O)c4ccc(C(F)(F)F)nc4c3c2C)cc1 [Compound 216] | 46 |
| Cc1ccc(-c2c([C@H](OC(C)(C)C)C(=O)O)c(C)c3nc(O)c4ccc(F)cc4c3c2C)cc1 [Compound 230] | 94 |
| COc1ccc2c(O)nc3c(C)c([C@H](OC(C)(C)C)C(=O)O)c(-c4ccc(C)cc4)c(C)c3c2c1 [Compound 226] | 58 |
| Cc1c(-c2c([C@H](OC(C)(C)C)C(=O)O)c(C)c3nc(O)c4cc(F)cnc4c3c2C)ccc2c1NCCO2 [Compound 237] | 12 |

Same assay, conditions: Human immunodeficiency virus 1, MT4, 96 h, Table A-5, four days

| Compound | EC50 [nM] |
| --- | --- |
| Cc1ccc(-c2c(C)c3c(c(C)c2[C@H](OC(C)(C)C)C(=O)O)N(S(C)(=O)=O)CC2CCCCN32)cc1 (stereo partly drawn) [Compound 285] | 55 |
| Cc1ccc(-c2c(C)c3c(c(C)c2[C@H](OC(C)(C)C)C(=O)O)N(S(C)(=O)=O)Cc2cc(C#N)ccc2-3)cc1 [Compound 279] | 11 |
| Cc1ccc2c(c1F)CN(S(C)(=O)=O)c1c(C)c([C@H](OC(C)(C)C)C(=O)O)c(-c3ccc4c(c3C)CCCO4)c(C)c1-2 [Compound 251] | 2.1 |
| Cc1c(C2=CCC(C)(C)CC2)c([C@H](OC(C)(C)C)C(=O)O)c(C)c2c1-c1c(F)cccc1CN2S(C)(=O)=O [Compound 258] | 3.9 |
| Cc1c(-c2ccc3c(c2F)NCCO3)c([C@H](OC(C)(C)C)C(=O)O)c(C)c2c1-c1c(F)cccc1CN2S(C)(=O)=O [Compound 282] | 8.8 |
| Cc1ccc(-c2c(C)c3c(c(C)c2[C@H](OC(C)(C)C)C(=O)O)N(S(C)(=O)=O)[C@@H](C)c2ccccc2-3)cc1 [Compound 287] | 33 |
| Cc1c(-c2ccc(Cl)cc2)c([C@H](OC(C)(C)C)C(=O)O)c(C)c2c1-c1c(F)cccc1CN2S(C)(=O)=O [Compound 265] | 11 |
| Cc1ccc(-c2c(C)c3c(c(C)c2[C@H](OC(C)(C)C)C(=O)O)N(S(C)(=O)=O)Cc2cccc(F)c2-3)c(C)c1 [Compound 278] | 3.7 |

Same assay, conditions: Human immunodeficiency virus 1, MT4, 96 h, Table A-7, four days

| Compound | EC50 [nM] |
| --- | --- |
| Cc1ccc(-c2c(C)c3c(c(C)c2[C@H](OC(C)(C)C)C(=O)O)N(S(N)(=O)=O)Cc2c(F)ccc(F)c2-3)cc1 [Compound 333] | 19 |
| Cc1c(-c2c(C)c3c(c(C)c2[C@H](OC(C)(C)C)C(=O)O)N(C(N)=O)Cc2c(F)ccc(F)c2-3)ccc2c1NCCO2 [Compound 358] | 91 |
| Cc1c(-c2c(C)c3c(c(C)c2[C@H](OC(C)(C)C)C(=O)O)N(S(C)(=O)=O)Cc2cccc(F)c2-3)ccc2c1NC(=O)CO2 [Compound 350] | 96 |
| Cc1c(-c2ccc(F)cc2O)c([C@H](OC(C)(C)C)C(=O)O)c(C)c2c1-c1c(F)ccc(F)c1CN2S(C)(=O)=O [Compound 332] | 24 |
| Cc1c(-c2ccc3c(c2)NCCC3)c([C@H](OC(C)(C)C)C(=O)O)c(C)c2c1-c1c(F)cccc1CN2S(C)(=O)=O [Compound 340] | 4.3 |
| Cc1ccc(-c2c(C)c3c(c(C)c2[C@H](OC(C)(C)C)C(=O)O)N(S(C)(=O)=O)Cc2cccc(F)c2-3)s1 [Compound 334] | 22 |
| Cc1c(-c2c(C)c3c(c(C)c2[C@H](OC(C)(C)C)C(=O)O)N(S(C)(=O)=O)Cc2cccc(F)c2-3)ccc(Cl)c1N [Compound 327] | 7.2 |

Same assay, conditions: Human immunodeficiency virus 1, MT4, 96 h, Table A-8 (continuation of Tables A-1 to A-9), four days

| Compound | EC50 [nM] |
| --- | --- |
| Cc1ccc(-c2c(C)c3c(c(C)c2[C@H](OC(C)(C)C)C(=O)O)N(S(C)(=O)=O)Cc2cc(N(C)C)cnc2-3)cc1 [Compound 390] | 2.2 |
| Cc1ccc(-c2c(C)c3c(c(C)c2[C@H](OC(C)(C)C)C(=O)O)N(S(C)(=O)=O)Cc2cnc(C(F)(F)F)cc2-3)cc1 [Compound 385] | 39 |
| Cc1c(-c2c(C)c3c(c(C)c2[C@H](OC(C)(C)C)C(=O)O)N(S(C)(=O)=O)Cc2cccc(F)c2-3)ccc(Cl)c1O [Compound 372] | 81 |
| Cc1ccc(-c2c(C)c3c(c(C)c2[C@H](OC(C)(C)C)C(=O)O)N(S(C)(=O)=O)Cc2c(C)ccnc2-3)cc1 [Compound 392] | 31 |

Same assay, conditions: Human immunodeficiency virus 1, MT4, 96 h, Table A-9, four days

| Compound | EC50 [nM] |
| --- | --- |
| Cc1cnc2c(c1)CN(S(C)(=O)=O)c1c(C)c([C@H](OC(C)(C)C)C(=O)O)c(C3=CCC(C)(C)CC3)c(C)c1-2 [Compound 404] | < 7.8 |

Same assay, conditions: Table A-2, four days

| Compound | EC50 [nM] |
| --- | --- |
| Cc1ccc(-c2c(C)c3c(c(C)c2[C@H](OC(C)(C)C)C(=O)O)NS(=O)(=O)Cc2c(F)cccc2-3)cc1 [Compound 124] | 8.2 |
| Cc1ccc(-c2c(C)c3c(c(C)c2[C@H](OC(C)(C)C)C(=O)O)N(S(C)(=O)=O)Cc2cc4c(cc2-3)OCCO4)cc1 [Compound 105] | 38 |
| Cc1ccc(-c2c(C)c3c(c(C)c2[C@H](OC(C)(C)C)C(=O)O)NS(=O)(=O)Cc2ccc(C)cc2-3)cc1 [Compound 120] | 5.1 |

Same assay, conditions: Table A-7, four days

| Compound | EC50 [nM] |
| --- | --- |
| Cc1c(-c2ccccc2)c([C@H](OC(C)(C)C)C(=O)O)c(C)c2c1-c1ncc(F)cc1CN2S(C)(=O)=O [Compound 326] | 54 |

Source: US20180362543A1, “HIV REPLICATION INHIBITOR” (Shionogi & Co., Ltd., priority 2013, published 2018)
